Patent US20250326744A1, “PIPERAZINE DERIVATIVE OR SALT THEREOF, AND PHARMACEUTICAL COMPOSITION” (priority 2022, published 2025)
Where a name gives a salt, the structure may show the parent alone.

Columns and labels:
[1] = tested on: mexY (EC) strain; assay: Efflux ability inhibition effect on drug efflux pump MexY (Test Examples 1 and 3): proliferation (OD595) of mexY (EC) strain with EM or LVFX at 1/4 MIC, EC75; type: cell-based, Escherichia coli; details: Table 51, Test Example 1, 16 to 20 hours culture, OD595; for EC75, mexY (EC) strain, EM: combined with EM at 1/4 MIC; for EC75, mexY (EC) strain, LVFX: combined with LVFX at 1/4 MIC
Description: The efflux ability inhibition effect of the test compound on the drug efflux pump was evaluated using the bacterial proliferative ability in the presence of EM or LVFX as an index.
EM is a macrolide antibacterial agent and is a drug that is discharged outside the bacteria by MexB and MexY LVFX is a quinolone antibacterial agent and is a drug that is discharged outside the bacteria by MexB and MexY In a case where the test compound has an efflux ability inhibitory ability against the drug efflux pump, the proliferation of bacteria is suppressed by the combined use of EM or LVFX and the test compound, as compared with the case where EM or LVFX is used alone.
A mutant strain (hereinafter, referred to as an “mexB (EC) strain”) obtained by transferring the genes of the main multidrug efflux system MexAB-OprM of Pseudomonas aeruginosa described in Nature, 2013, Vol. 500, pp. 102 to 106 as a plasmid into Escherichia coli strains in which the acrB and tolC genes of the multidrug efflux system AcrAB-TolC were deleted as described in Journal of Infection and Chemotherapy 2008, Vol. 14, pp. 23 to 29, and a gene transfer strain (hereinafter, referred to as an “mexY (EC) strain”) of another main multidrug efflux system MexXY-OprM of Pseudomonas aeruginosa were used for the evaluation of test compounds.
In the mexB (EC) strain, an expression level of MexB of the drug efflux pump is accelerated, and in the mexY (EC) strain, an expression level of MexY of the drug efflux pump is accelerated.
For culturing each Escherichia coli strain, a 96-well plate (amount of culture medium per well: 100 μL) was used and Luria-Bertani broth (LB) culture medium was used. The inoculation amount of the bacteria was set to 10^4 to 5 CFU/well.
The mexB (EC) strain and the mexY (EC) strain were cultured for 16 to 20 hours in a culture medium to which EM or LVFX and test compounds at various concentrations (0 to 800 μM) were added, and the proliferation of the bacterial strains was evaluated by optical turbidity at 595 nm (OD595). The concentration of the antibacterial agents (EM and LVFX) in the culture medium were each set to ¼ of the minimum inhibitory concentration (MIC) (hereinafter, referred to as ¼ MIC) of the single antibacterial agent.
The proliferation of bacteria in a case where the antibacterial agent was added at the concentration of ¼ MIC in a case where the test compound was not added was measured, and compared with the proliferation of bacteria in a case where the test compound was contained, and the lowest concentration of the test compound at which the proliferation was inhibited by 75% or more was defined as the drug efflux pump inhibitory ability of the test compound as 75% inhibitory effect concentration (EC75).
The drug efflux pump inhibitory ability of each test compound in a case of being used in combination with the antibacterial agent against the mexB (EC) strain and the mexY (EC) strain was evaluated as follows according to the value of EC75. • S: EC75≤[…] • A: 12.5 μM<EC75≤25 μM • B: 25 μM<EC75≤100 μM • C: […]
In the same manner as in Test Example 1, the efflux ability inhibition effect of the test compound on the drug efflux pump was evaluated using the bacterial proliferation ability in the presence of EM or LVFX as an index.

[2] = tested on: mexB (PA) strain; assay: Combinational effect with antibacterial agent against Pseudomonas aeruginosa (Test Examples 2 and 4): mexB (PA) strain with LVFX, TC or AZT at 1/4 MIC, EC99; type: cell-based; details: Table 52, Test Example 2, 16 to 20 hours culture, OD595; for EC99, mexB (PA), AZT: combined with AZT at 1/4 MIC; for EC99, mexB (PA), LVFX: combined with LVFX at 1/4 MIC
Method in brief: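 EC99 denotes the minimum test-compound concentration (range 0–800 μM) that suppresses ≥99% of growth, measured by OD595, when combined with ¼ MIC levofloxacin (LVFX), tetracycline or aztreonam. The efflux-pump mutant mexB (PA), expressing mainly MexAB-OprM, was inoculated at 10^4–5 CFU/well in CAMHB for 16–20 h.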

Row | Structure (SMILES) | EC75, mexY (EC) strain, EM [1] | EC75, mexY (EC) strain, LVFX [1] | EC99, mexB (PA), AZT [2] | EC99, mexB (PA), LVFX [2]
1 | CCOc1cccc(F)c1CN1CCN(C(=O)[C@H](N)C2CCN(CCn3c(=O)ccc4ncc(F)cc43)CC2)CC1 [Example 14, Hydrobromide of (R)-1-(2-(4-(1-amino-2-(4-(2-ethoxy-6-fluorobenzyl)piperazin-1-yl)-2-oxoethyl)piperidin-1-yl)ethyl)-7-fluoro-1,5-naphthyridin-2(1H)-one] | B (25 μM<EC75≤100 μM) | B (25 μM<EC75≤100 μM) | – | –
2 | CCOc1cccc(F)c1CN1CCN(C(=O)[C@H](N)C2CCN(CCC3CCCC3)CC2)CC1 [Example 41, Hydrobromide of (R)-2-amino-2-(1-(2-cyclopentylethyl)piperidin-4-yl)-1-(4-(2-ethoxy-6-fluorobenzyl)piperazin-1-yl) ethan-1-one] | A (12.5 μM<EC75≤25 μM) | A (12.5 μM<EC75≤25 μM) | – | –
3 | CCOc1cccc(F)c1CN1CCN(C(=O)[C@H](N)C2CCN(CCC3CCCCC3)CC2)CC1 [Example 47, Hydrobromide of (R)-2-amino-2-(1-(2-cyclohexylethyl)piperidin-4-yl)-1-(4-(2-ethoxy-6-fluorobenzyl)piperazin-1-yl)ethan-1-one] | A (12.5 μM<EC75≤25 μM) | A (12.5 μM<EC75≤25 μM) | – | –
4 | CCOc1cccc(F)c1CN1CCN(C(=O)[C@H](N)C2CCN(CC(F)c3ccccc3)CC2)CC1 (stereo partly drawn) [Example 59, Hydrobromide of (2R)-2-amino-1-(4-(2-ethoxy-6-fluorobenzyl)piperazin-1-yl)-2-(1-(2-fluoro-2-phenylethyl)piperidin-4-yl) ethan-1-one] | B (25 μM<EC75≤100 μM) | B (25 μM<EC75≤100 μM) | – | –
5 | CCOc1cccc(F)c1CN1CCN(C(=O)[C@H](N)C2CCN(CCc3cc(Cl)ccc3-c3ccccc3C#N)CC2)CC1 [Example 64, Hydrobromide of (R)-2′-(2-(4-(1-amino-2-(4-(2-ethoxy-6-fluorobenzyl)piperazin-1-yl)-2-oxoethyl)piperidin-1-yl)ethyl)-4′-chloro-[1,1′-biphenyl]-2-carbonitrile] | A (12.5 μM<EC75≤25 μM) | – | – | –
6 | CCOc1cccc(F)c1CN1CCN(C(=O)[C@H](N)C2CCN(CCC34CC5CC(CC(C5)C3)C4)CC2)CC1 [Example 125] | A (12.5 μM<EC75≤25 μM) | – | – | –
7 | CCOc1cccc(F)c1CN1CCN(C(=O)[C@H](N)C2CCN(CCC3(C)CCCCC3)CC2)CC1 [Example 126, Hydrochloride of (R)-2-amino-1-(4-(2-ethoxy-6-fluorobenzyl)piperazin-1-yl)-2-(1-(2-(1-methylcyclohexyl)ethyl)piperidin-4-yl)ethan-1-one] | A (12.5 μM<EC75≤25 μM) | A (12.5 μM<EC75≤25 μM) | – | –
8 | COc1ccccc1CN1CCN(C(=O)[C@H](NCc2ccccc2)C2CCN(CCc3cccc(Cl)c3)CC2)CC1 [Example 142, hydrochloride of (R)-2-(benzylamino)-2-(1-(3-chlorophenethyl)piperidin-4-yl)-1-(4-(2-methoxybenzyl)piperazin-1-yl)ethan-1-one] | B (25 μM<EC75≤100 μM) | B (25 μM<EC75≤100 μM) | – | –
9 | O=C(CN1CCN(CCc2ccccc2)CC1)N1CCN(CC2CCCCC2)CC1 [Example 210, Hydrochloride of 1-(4-(cyclohexylmethyl)piperazin-1-yl)-2-(4-phenethylpiperazin-1-yl)ethan-1-one] | B (25 μM<EC75≤100 μM) | – | – | –
10 | O=C(CN1CCN(CCc2ccccc2)CC1)N1CCN(Cc2c(O)cccc2Cl)CC1 [Example 229, Hydrochloride of 1-(4-(2-chloro-6-hydroxybenzyl)piperazin-1-yl)-2-(4-phenethylpiperazin-1-yl)ethan-1-one] | B (25 μM<EC75≤100 μM) | B (25 μM<EC75≤100 μM) | B (25 μM<EC99≤100 μM) | B (25 μM<EC99≤100 μM)
11 | O=C(CN1CCN(CCc2ccccc2)CC1)N1CCN(Cc2cccc3ccccc23)CC1 [Example 238] | B (25 μM<EC75≤100 μM) | B (25 μM<EC75≤100 μM) | B (25 μM<EC99≤100 μM) | B (25 μM<EC99≤100 μM)
12 | COc1ccccc1CN1CCN(C(=O)CN2CCN(CCc3cccc(Cl)c3)CC2)CC1 [Example 272, 2-(4-(3-chlorophenethyl)piperazin-1-yl)-1-(4-(2-methoxybenzyl)piperazin-1-yl)ethan-1-one] | B (25 μM<EC75≤100 μM) | B (25 μM<EC75≤100 μM) | S (EC99≤12.5 μM) | S (EC99≤12.5 μM)
13 | COc1ccccc1CN1CCN(C(=O)CN2CCN(CCc3ccc(F)cc3)CC2)CC1 [Example 277, 2-(4-(4-Fluorophenethyl)piperazin-1-yl)-1-(4-(2-methoxybenzyl)piperazin-1-yl) ethan-1-one and hydrochloride thereof] | B (25 μM<EC75≤100 μM) | B (25 μM<EC75≤100 μM) | B (25 μM<EC99≤100 μM) | B (25 μM<EC99≤100 μM)
14 | COc1ccccc1CN1CCN(C(=O)CN2CCN(CCc3ccoc3)CC2)CC1 [Example 291, 2-(4-(2-(Furan-3-yl)ethyl)piperazin-1-yl)-1-(4-(2-methoxybenzyl)piperazin-1-yl)ethan-1-one and hydrochloride thereof] | B (25 μM<EC75≤100 μM) | – | – | –
15 | COc1ccccc1CN1CCN(C(=O)C(F)(F)C2CCN(CCc3ccccc3)CC2)CC1 [Example 299, hydrochloride of 2,2-difluoro-1-(4-(2-methoxybenzyl)piperazin-1-yl)-2-(1-phenethylpiperidin-4-yl)ethan-1-one] | B (25 μM<EC75≤100 μM) | B (25 μM<EC75≤100 μM) | – | –
16 | COc1ccccc1CN1CCN(C(=O)CN2CCC(/C=C/c3ccccc3)CC2)CC1 [Example 400, hydrochloride of (E)-1-(4-(2-methoxybenzyl)piperazin-1-yl)-2-(4-styrylpiperidin-1-yl)ethan-1-one] | B (25 μM<EC75≤100 μM) | B (25 μM<EC75≤100 μM) | A (12.5 μM<EC99≤25 μM) | S (EC99≤12.5 μM)
17 | COc1ccccc1CN1CCN(C(=O)CN2CCC(CCc3ccccc3)(COCc3ccccc3)CC2)CC1 [Example 403, Hydrochloride of 2-(4-((benzyloxy)methyl)-4-phenethylpiperidin-1-yl)-1-(4-(2-methoxybenzyl)piperazin-1-yl)ethan-1-one] | – | B (25 μM<EC75≤100 μM) | S (EC99≤12.5 μM) | S (EC99≤12.5 μM)
18 | COc1ccccc1CN1CCN(C(=O)CN2CCC(C(=O)Nc3ccccc3)CC2)CC1 [Example 408, Hydrochloride of 1-(2-(4-(2-methoxybenzyl)piperazin-1-yl)-2-oxoethyl)-N-phenylpiperidine-4-carboxamide] | B (25 μM<EC75≤100 μM) | B (25 μM<EC75≤100 μM) | – | –
19 | COc1ccccc1CN1CCN(C(=O)CN2CCC(CCc3ccccc3)(NC(N)=O)CC2)CC1 [Example 416, hydrochloride of 1-(1-(2-(4-(2-methoxybenzyl)piperazin-1-yl)-2-oxoethyl)-4-phenethylpiperidin-4-yl)urea] | B (25 μM<EC75≤100 μM) | B (25 μM<EC75≤100 μM) | – | –
